Patent publication US20090191193A1, “Aryl Vinyl Sulfides, Sulfones, Sulfoxides and Sulfonamides, Derivatives Thereof and Therapeutic Uses Thereof” (TEMPLE UNIVERSITY-OF THE COMMONWEALTH SYSTEM OF HIGHER …, priority 2006, published 2009)

Assays:
[1] = tested on: H157 (non small cell lung carcinoma); experiment: Effect on tumor cell lines, viable cell count by trypan blue exclusion (Latham et al.): H157; format: cell-based; details: Homo sapiens, NCI-H157, H157 non small cell lung carcinoma cells, viable cell count 96 hours after treatment
Description: (§1) The effect of the compounds of the invention on tumor cells was determined by the assay described by Latham et al., Oncogene 12:827-837 (1996). Tumor cells DU145 (prostate cancer), K562 (chronic myelogenous leukaemia), BT20 (breast carcinoma), H157 (non small cell lung carcinoma), or DLD1 (colon carcinoma) were plated in 6-well dishes at a cell density of 1.0×10^5 cells per 35-mm^2 well. The plated cells were treated 24 hours later with a compound of the invention dissolved in DMSO at multiple concentrations ranging from 100 nM to 10 μM. The total number of viable cells was determined 96 hours later by trypsinizing the wells and counting the number of viable cells, as determined by trypan blue exclusion, using a hemacytometer. Normal HFL cells were treated with the same compounds under the same conditions of concentration and time.

BT20 (breast carcinoma) = experiment: Effect on tumor cell lines, viable cell count by trypan blue exclusion (Latham et al.): BT20; format: cell-based; details: Homo sapiens, BT-20, BT20 breast carcinoma cells, viable cell count 96 hours after treatment
Description: as §1

DU145 (prostate cancer) = experiment: Effect on tumor cell lines, viable cell count by trypan blue exclusion (Latham et al.): DU145; format: cell-based; details: DU145 prostate cancer cells, viable cell count 96 hours after treatment
DLD1 (colon carcinoma) = experiment: Effect on tumor cell lines, viable cell count by trypan blue exclusion (Latham et al.): DLD1; format: cell-based; details: Homo sapiens, DLD-1, DLD1 colon carcinoma cells, viable cell count 96 hours after treatment
Description: as §1

[2] = tested on: K562 (chronic myelogenous leukaemia); experiment: Effect on tumor cell lines, viable cell count by trypan blue exclusion (Latham et al.): K562; format: cell-based; details: K562 chronic myelogenous leukaemia cells, viable cell count 96 hours after treatment

SMILES	IC50 [1] [µM]	IC50 (BT20 (breast carcinoma)) [µM]	melting point [°C]	IC50 (DU145 (prostate cancer); Homo sapiens, DU-145, 96 h) [µM]	IC50 (DLD1 (colon carcinoma)) [µM]	IC50 ([2]; Homo sapiens, K562, 96 h) [µM]	IC50 [2] [µM]	IC50 (DU145 (prostate cancer)) [µM]
COc1cc(OC)c(/C=C(\C(N)=O)S(=O)(=O)Cc2ccc(Cl)cc2)c(OC)c1 [Example 174]	> 20	> 20	176 to 178	> 20	> 20	–	–	–
NC(=O)/C(=C\c1ccc([N+](=O)[O-])cc1)S(=O)(=O)Cc1ccc(Cl)cc1 [Example 176]	> 20	> 20	190 to 192	> 20	> 20	–	–	–
COc1ccc(S(=O)(=O)/C(=C/c2c(OC)cccc2OC)C(N)=O)cc1 [Example 183]	> 20	> 20	160 to 162	> 20	> 20	–	–	–
COc1ccc(S(=O)(=O)/C(=C/c2ccc([N+](=O)[O-])cc2)C(N)=O)cc1 [Example 184]	> 20	> 20	172 to 174	> 20	> 20	–	–	–
CCOc1ccc(/C=C(\C#N)S(=O)(=O)Nc2ccc(OC)cc2)cc1OC [Example 287]	–	–	111 to 113	> 100	–	> 100	–	–
COc1ccc(NS(=O)(=O)/C(C#N)=C/c2ccc(O)cc2)cc1 [Example 289]	–	–	181 to 182	> 100	–	50 to 100	–	–
COc1ccc(NS(=O)(=O)/C(C#N)=C/c2ccc(Br)cc2)cc1 [Example 291]	–	–	102 to 103	–	–	–	50 to 100	50 to 100
COc1ccc(NS(=O)(=O)/C(C#N)=C/c2ccccc2O)cc1 [Example 292]	–	–	197 to 198	> 100	–	50 to 100	–	–

Further lines, results first:

IC50 [1] [µM]	IC50 (BT20 (breast carcinoma)) [µM]	melting point [°C]	IC50 (DU145 (prostate cancer); Homo sapiens, DU-145, 96 h) [µM]	IC50 (DLD1 (colon carcinoma)) [µM]	IC50 ([2]; Homo sapiens, K562, 96 h) [µM]	IC50 [2] [µM]	IC50 (DU145 (prostate cancer)) [µM]	SMILES
> 20	> 20	201 to 205	> 20	> 20	–	–	–	NC(=O)/C(=C\c1ccc(Cl)cc1)S(=O)(=O)Cc1ccc(Cl)cc1Cl [Example 150]
> 20	> 20	158 to 161	> 20	> 20	–	–	–	COc1ccc(CS(=O)(=O)/C(=C/c2ccc(F)cc2)C(N)=O)cc1 [Example 172]
> 20	> 20	166 to 168	> 20	> 20	–	–	–	COc1ccc(CS(=O)(=O)/C(=C/c2c(OC)cccc2OC)C(N)=O)cc1 [Example 173]
10 to 20	10 to 20	150 to 154	10 to 20	10 to 20	–	–	–	COc1cccc(OC)c1/C=C(\C(N)=O)S(=O)(=O)Cc1ccc(Cl)cc1 [Example 175]
1 to 10	1 to 10	151 to 154	1 to 10	1 to 10	–	–	–	NC(=O)/C(=C\c1ccc(F)cc1)S(=O)(=O)c1ccccc1 [Example 177]
10 to 20	10 to 20	168 to 172	10 to 20	10 to 20	–	–	–	COc1cccc(OC)c1/C=C(\C(N)=O)S(=O)(=O)c1ccccc1 [Example 179]
–	–	84 to 86	50 to 100	–	25 to 50	–	–	COc1ccc(NS(=O)(=O)/C(C#N)=C/c2ccc(Cl)c(Cl)c2)cc1 [Example 288]
–	–	95 to 96	50 to 100	–	25 to 50	–	–	COc1ccc(NS(=O)(=O)/C(C#N)=C/c2ccc(Cl)cc2)cc1 [Example 290]
